Measurements reported in US5049560A, “Sulfonyl derivatives of thieno-triazolo-diazepines useful as anti-PAF and anti-ischemic agents” (priority 1989, dated 1991).

What was measured:
[1] = system: platelet aggregation induced by PAF; test: Inhibition of platelet aggregation induced by PAF; assay type: cell-based, New Zealand rabbits; settings: Oryctolagus cuniculus, rabbit platelets, aggregometer at 57° C. [sic]
Protocol: 1) Inhibition of platelet aggregation induced by PAF
This experimentation was conducted according to the method of R. KINLOUGH. RATHBONE, J. P. CAZENAVE, M. PACKHAM and F. MUSTARD, Lab. Invest. 48, 98, 1980. In this test, New Zealand rabbits were used (male New Zealand rabbits of an average weight of 5 kg).
The determinations are made on a chrono-log Coultronics aggregometer, at […] coupled with a graphic recorder; the results of these determinations (in molecular concentration) are reported on the table I on the central column.

omega 3 sites = test: Global ischemia on gerbils; assay type: in vivo, gerbil; settings: Meriones unguiculatus, 168 h; both carotides clamped 10 minutes; hippocampes taken one week later; 3H-PK 11195 2 nM; compared to control; significance marks (*, **, ***, NS) given; read-out: Global protection in %
Protocol: 3) Global ischemia on gerbils
For this test, males gerbilles were anaesthetized with brietal at the doses of 35 mg/kg IP; thereafter, both carotides were clamped for 10 minutes, then the clamping was released. Treated animals received each 10 mg/kg of the compounds of one of the examples.
One week later, the animals were killed and both hippocampes were taken, weighed and frozen at -80° C.
After crushing with 1 ml of TRIS-HCl buffer pH 7.4 for 30 secondes, aliquots of each 50 μl of this preparation were incubed in each 1 ml of TRIS-HCl buffer containing ^3 H-PK 11195 at 2 nM (90 Ci/mmole, NENE, Germany) for 1 hour at 25° C. For each preparation, 3 determinations were made. The density of omega 3 sites (marked by the specific ^3 H PK 11195 marker) are expressed in f-moles of PK 11195/mg of fresh tissues and converted in percentage of protection compared to control.

Toxicity on mice = settings: mouse, in vivo, IP
Excerpt: None of these compounds of this invention was toxic per os at dose of 1 g/kg on mice.
None of the compounds was toxic IP at the dose of 1 g/kg on mice with the exception of the examples 1, 5 and 10 for which the LD 50 was comprised between 0.5 and 1 g/kg.

Solubility = assay type: physicochemical
Protocol: Yield 38 g (85%) of an orange powder melting at 80° C. (Tottoli) insoluble in water at room temperature but soluble in DMSO.

SMILES	IC50 [1] [nM]	inhibition in vivo at 10 mg/kg (omega 3 sites) [%]	LD50 (Toxicity on mice) [mg/kg]	solubility in DMSO (Solubility; DMSO)	solubility in water (Solubility; water, room temperature)
Cc1nnc2n1-c1sc3c(c1C(c1ccccc1Cl)=NC2)CCN(S(=O)(=O)c1ccc(C(=O)O)cc1)C3 [Example 16, 6-(2-chlorophenyl)-9-(4-carboxy)phenylsulphonyl-7,8,9,10-tetrahydro-1-methyl-4H-pyrido [4',3':4,5] thieno [3,2-f] 1,2,4-triazolo [4,3-a] 1,4-diazepine]	20.1	23.9			
Cc1nnc2n1-c1sc3c(c1C(c1ccccc1Cl)=NC2)CCN(S(=O)(=O)c1ccc2ccccc2c1)C3 [Example 15, 6-(2-chlorophenyl)-9-(2-naphtyl)sulphonyl-7,8,9,10-tetrahydro-1-methyl-4H-pyrido [4',3':4,5] thieno [3,2-f] 1,2,4-triazolo [4,3-a] 1,4-diazepine]	431	34.8			
COc1ccc(S(=O)(=O)N2CCc3c(sc4c3C(c3ccccc3Cl)=NCc3nnc(C)n3-4)C2)c(OC)c1OC [Example 5, 6-(2-chlorophenyl)-9-(4,5,6-trimethoxy)phenylsulphonyl-7,8,9,10-tetrahydro-1-methyl 4H-pyrido [4',3':4,5] thieno [3,2-f] 1,2,4-triazolo [4,3-a] 1,4-diazepine]	187	28.1	500 to 1000		
Cc1nnc2n1-c1sc3c(c1C(c1ccccc1Cl)=NC2)CCN(S(=O)(=O)c1cccs1)C3 [Example 11, 6-(2-chlorophenyl)-9-α-thienylphenylsulphonyl-7,8,9,10-tetrahydro-1-methyl 4H-pyrido [4',3':4,5] thieno [3,2-f] 1,2,4-triazolo [4,3-a] 1,4-diazepine]	144	32.7			
COc1cc(OC)c(S(=O)(=O)N2CCc3c(sc4c3C(c3ccccc3Cl)=NCc3nnc(C)n3-4)C2)cc1SC [Example 18, 6-(2-chlorophenyl)-9-[5-methylthio 2,4-dimethoxy]phenyl sulphonyl-7,8,9,10-tetrahydro-1-methyl-4H-pyrido [4',3':4,5] thieno [3,2-f] 1,2,4-triazolo [4,3-a] 1,4-diazepine]	22.2	10			
Cc1nnc2n1-c1sc3c(c1C(c1ccccc1Cl)=NC2)CCN(S(=O)(=O)c1ccccc1)C3 [Example 2, 6-(2-chlorophenyl)-9-phenylsulphonyl-7,8,9,10-tetrahydro-1-methyl 4H-pyrido [4',3':4,5] thieno [3,2-f] 1,2,4-triazolo [4,3-a] 1,4-diazepine]	225	38.3			
COc1ccc(S(=O)(=O)N2CCc3c(sc4c3C(c3ccccc3Cl)=NCc3nnc(C)n3-4)C2)cc1OC [Example 7, 6-(2-chlorophenyl)-9-(3,4-dimethoxy)phenylsulphonyl-7,8,9,10-tetrahydro-1-methyl 4H-pyrido [4',3':4,5] thieno [3,2-f] 1,2,4-triazolo [4,3-a] 1,4 diazepine]	119	26.6			
COc1cc(OC)c(S(=O)(=O)N2CCc3c(sc4c3C(c3ccccc3Cl)=NCc3nnc(C)n3-4)C2)cc1S(C)(=O)=O [Example 19, 6-(2-chlorophenyl)-9-[5-mesyl 2,4-dimethoxy]phenylsulphonyl-7,8,9,10-tetrahydro-1-methyl-4H-pyrido [4',3':4,5] thieno [3,2-f] 1,2,4-triazolo [4,3-a] 1,4-diazepine]	375	8.4			
COc1ccc(S(=O)(=O)N2CCc3c(sc4c3C(c3ccccc3Cl)=NCc3nnc(C)n3-4)C2)cc1 [Example 9, 6-(2-chlorophenyl)-9-(4-methoxy)phenylsulphonyl-7,8,9,10-tetrahydro-1-methyl 4H-pyrido [4',3':4,5] thieno [3,2-f] 1,2,4-triazolo [4,3-a] 1,4-diazepine]	122	9.4			
Cc1nnc2n1-c1sc3c(c1C(c1ccccc1Cl)=NC2)CCN(S(=O)(=O)c1ccco1)C3 [Example 12, 6-(2-chlorophenyl)-9-α-furylphenylsulphonyl-7,8,9,10-tetrahydro-1-methyl 4H-pyrido [4',3':4,5] thieno [3,2-f] 1,2,4-triazolo [4,3-a] 1,4-diazepine]	110	21.4			
CCCCCCCCCCCCCCCCS(=O)(=O)N1CCc2c(sc3c2C(c2ccccc2Cl)=NCc2nnc(C)n2-3)C1 [Example 1, 6-(2-chlorophenyl)-9-hexadecylsulphonyl-7,8,9,10-tetrahydro-1-methyl 4H-pyrido [4',3':4,5] thieno [3,2-f] 1,2,4-triazolo [4,3-a] 1,4-diazepine]	96.3		500 to 1000	soluble	insoluble
Cc1nnc2n1-c1sc3c(c1C(c1ccccc1Cl)=NC2)CCN(S(=O)(=O)c1cccc2cccnc12)C3 [Example 14, 6-(2-chlorophenyl)-9-(8-quinolyl)sulfonyl-7,8,9,10-tetrahydro-1-methyl-4H-pyrido-[4',3':4,5] thieno [3,2-f] 1,2,4-triazolo [4,3-a] 1,4-diazepine]	65	17.4			
Cc1nnc2n1-c1sc3c(c1C(c1ccccc1Cl)=NC2)CCN(S(=O)(=O)c1ccc(C(C)(C)C)cc1)C3 [Example 6, 6-(2-chlorophenyl)-9-(4-tert.butyl)phenylsuphonyl-7,8,9,10-tetrahydro-1-methyl 4H-pyrido [4',3':4,5] thieno [3,2-f] 1,2,4-triazolo [4,3-a] 1,4-diazepine]	117	13.8			
Cc1nnc2n1-c1sc3c(c1C(c1ccccc1Cl)=NC2)CCN(S(=O)(=O)c1ccc(Oc2ccc(C(=O)O)cc2)cc1)C3 [Example 17, 6-(2-chlorophenyl)-9-[4-(4'-(carboxy)phenyloxy)phenyl] sulphonyl-7,8,9,10-tetrahydro-1-methyl-4H-pyrido [4',3':4,5] thieno [3,2-f] 1,2,4-triazolo [4,3-a] 1,4-diazepine]	472	7.8			
Cc1cc(C)c(S(=O)(=O)N2CCc3c(sc4c3C(c3ccccc3Cl)=NCc3nnc(C)n3-4)C2)c(C)c1 [Example 8, 6-(2-chlorophenyl)-9-(2,4,6-trimethyl)phenylsulphonyl-7,8,9,10-tetrahydro-1-methyl 4H-pyrido [4',3':4,5] thieno [3,2-f] 1,2,4-triazolo [4,3-a] 1,4-diazepine]	25.1	30.5			
Cc1nnc2n1-c1sc3c(c1C(c1ccccc1Cl)=NC2)CCN(S(=O)(=O)c1ccc(C(F)(F)F)cc1)C3 [Example 4, 6-(2-chlorophenyl)-9-(trifluoromethyl)phenylsulphonyl-7,8,9,10-tetrahydro-1-methyl 4H-pyrido [4',3':4,5] thieno [3,2-f] 1,2,4-triazolo [4,3-a] 1,4-diazepine]	98.2	38.7			
Cc1nnc2n1-c1sc3c(c1C(c1ccccc1Cl)=NC2)CCN(S(=O)(=O)c1ccc[nH]1)C3 [Example 13, 6-(2-chlorophenyl)-9-(α-pyrrolyl)sulphonyl-7,8,9,10-tetrahydro-1-methyl-4H-pyrido [4',3':4,5] thieno [3,2-f] 1,2,4-triazolo [4,3-a] 1,4-diazepine]	215	29.3			
Cc1nnc2n1-c1sc3c(c1C(c1ccccc1Cl)=NC2)CCN(S(=O)(=O)c1ccc(Oc2ccc([N+](=O)[O-])cc2)cc1)C3 [Example 10, 6-(2-chlorophenyl)-9-[4-(4'-nitrophenoxy)]phenylsulphonyl-7,8,9,10-tetrahydro-1-methyl 4H-pyrido [4',3':4,5] thieno [3,2-f] 1,2,4-triazolo [4,3-a] 1,4-diazepine]	1.41	19.3	500 to 1000		
Cc1nnc2n1-c1sc3c(c1C(c1ccccc1Cl)=NC2)CCN(S(=O)(=O)C(C)C)C3 [Example 20, 6-(2-chlorophenyl)-9-isopropylsulfonyl-7,8,9,10-tetrahydro-1-methyl-4H-pyrido [4',3':4,5] thieno [3,2-f] 1,2,4-triazolo [4,3-a] 1,4-diazepine]	517	47.5			
Cc1nnc2n1-c1sc3c(c1C(c1ccccc1Cl)=NC2)CCN(S(=O)(=O)c1c(Cl)cc(Cl)cc1Cl)C3 [Example 3, 6-(2-chlorophenyl)-9-(2,4,6-trichloro)phenylsulphonyl-7,8,9,10-tetrahydro-1-methyl 4H-pyrido [4',3':4,5] thieno [3,2-f] 1,2,4-triazolo [4,3-a] 1,4-diazepine]	37.1	33.3			
